Patent US10314821B2, “Crystalline forms of 4-cyano-N-(2-(4,4-dimethylcyclohex-1-en-1-yl)-6-(2,2,6,6-tetramethyltetrahydro-2H-pyran-4-yl)pyridin-3-yl)-1H-imidazole-2-carboxamide” (Janssen Pharmaceutica NV, priority 2016, dated 2019)

Columns and labels:
Type in all cases: physicochemical
[1] = Competitive slurry studies in water, form by XRPD
Description: Competitive slurry studies of Compound A, Forms II, IIA, IIB, III, IV, V, and VI were conducted at RT (room temperature, about 20° C.) and 50° C. in water. […] A small portion of the slurry was transferred to 50° C. after 2 days and analyzed using powder X-ray after being slurred at 50° C. for 2 hours (where a sample of the slurry was placed on an XRPD sample holder, the solvent allowed to evaporate under ambient conditions to yield a residue, and an XRPD measured for the residue). Complete conversion to Form I took place within 2 hours of heating.

[2] = Visual solubility of Compound A, Form I in solvents; details: 50 mg in 10 mL, stirred, heated to 40° C.; for solubility: organic solvent or mixture, thermodynamic from solid
From the text: An automated solid-state form screening of Compound A was done using a binary solvent system. Screening experiments consisted of an array of 13 solvents (water, methanol, ethanol, acetone, acetonitrile, isopropyl alcohol, ethyl acetate, toluene, tetrahydrofuran (THF), dichloromethane, 2-butanone (MEK), 1-butanol, and heptane) under slow evaporation crystallization conditions. Specifically, saturated solutions of Compound A (prepared as described in Example 1 above) in 13 different solvents were prepared by adding solid powder of Compound A, Form I (50 mg, prepared as described in Example 1 above) and the selected solvent to 20 mL vials. The resulting solutions were stirred and heated to 40° C. All preparations dissolved quickly except in water, toluene, and heptane. Table 1 provides a summary of the visual solubility of Compound A, Form I in the noted solvents.

[3] = Hygroscopicity and water solubility by USP methods; details: isolated solid, freebase
Description: The isolated solid (Compound A, as a freebase) was a white crystalline solid, hygroscopic and insoluble in water as determined by USP methods. […] The XRD for Form I of Compound A differed from the XRD of a sample of the HCl salt of Compound A (e.g., FIG. 15). […] (equivalent to 0.23 mole of water) due to surface water loss and 0.5% between 182° C. and 219° C. due to melting/decomposition (as shown in FIG. 12). This differed from the TGA spectrum of the HCl salt of Compound A (e.g., FIG. 17).

[4] = Moisture sorption analysis (DVS)
Description: The moisture sorption analysis was performed using a Hiden Isochema system Model IGAsorp. The sample was run in a stainless-steel mesh crucible. The sample was initially dried at 60° C. for 30 minutes then the moisture profile was evaluated by monitoring vapor adsorption/desorption over the range of 0 to 90% relative humidity at 25° C. The moisture profile consisted of 2 cycles of vapor adsorption/desorption.

[5] = Slurry studies in organic solvents, form by XRPD
Description: Small scale saturated solutions of Compound A, Form I (prepared as described in Example 1 above) in the organic solvents noted in Example 2, except water, toluene, or heptane, were prepared as follows. Compound A, Form I (5-10 mg) was added to 2 mL HPLC vials and the selected solvent (50 μL) was added. The resulting slurries were stirred at 300 rpm for up to 1 day. At 1 hour and 1 day time-points, a sample of each slurry was placed on an XRPD sample holder and the solvent evaporated under ambient conditions to yield a solid residue which was then analyzed by X-ray powder diffraction.

[6] = at the end of a second moisture sorption-desorption cycle

## CC1(C)CC=C(c2nc(C3CC(C)(C)OC(C)(C)C3)ccc2NC(=O)c2nc(C#N)c[nH]2)CC1 [Compound A, Form II, 4-cyano-N-[2-(4,4-dimethylcyclohex-1-en-1-yl)-6-(2,2,6,6-tetramethyltetrahydro-2H-pyran-4-yl)pyridine-3-yl]-1H-imidazole-2-carboxamide]
[1]; competitive slurry in water at RT (about 20° C.)
  Time to complete conversion to Form I: 3 days

## CC1(C)CC=C(c2nc(C3CC(C)(C)OC(C)(C)C3)ccc2NC(=O)c2nc(C#N)c[nH]2)CC1 [Compound A, Form I, 4-cyano-N-[2-(4,4-dimethylcyclohex-1-en-1-yl)-6-(2,2,6,6-tetramethyltetrahydro-2H-pyran-4-yl)pyridine-3-yl]-1H-imidazole-2-carboxamide]
[2]; 1-Butanol
  Visual Solubility: Dissolve
  solubility: > 5000 µg/mL
[2]; Acetone
  Visual Solubility: Dissolve
  solubility: > 5000 µg/mL
[2]; Acetonitrile
  Visual Solubility: Dissolve
  solubility: > 5000 µg/mL
[2]; Dichloromethane
  Visual Solubility: Dissolve
  solubility: > 5000 µg/mL
[2]; Ethanol
  Visual Solubility: Dissolve
  solubility: > 5000 µg/mL
[2]; Ethyl Acetate
  Visual Solubility: Dissolve
  solubility: > 5000 µg/mL
[2]; Heptane
  Visual Solubility: Suspension
[2]; IPA (isopropyl alcohol), IPA
  solubility: > 5000 µg/mL
[2]; IPA
  Visual Solubility: Dissolve
[2]; Methanol
  Visual Solubility: Dissolve
  solubility: > 5000 µg/mL
[2]; MethylEthylKetone (MEK)
  Visual Solubility: Dissolve
[2]; THF
  Visual Solubility: Dissolve
[2]; Toluene
  Visual Solubility: Suspension
[2]; Water
  Visual Solubility: Suspension
[2]; methyl ethyl ketone (MEK, 2-butanone), MethylEthylKetone (MEK)
  solubility: > 5000 µg/mL
[2]; tetrahydrofuran (THF), THF
  solubility: > 5000 µg/mL
[3]
  Hygroscopicity: hygroscopic
  Solubility in water: insoluble
[4]; 0 to 90% relative humidity at 25° C.
  Hygroscopicity by DVS: hygroscopic
[4]; 2 cycles of adsorption/desorption
  Crystalline form upon humidity cycling (XRPD before and after DVS): did not change
[4]; [6]
  Moisture retained: 1.8%
  Moisture retained, equivalent mole of water: 0.47 mole of water
[4]; up to 90% RH, 25° C.
  Moisture adsorption: 41.8%
[5]; 1-Butanol slurry
  Saturated Conc.: 90 mg/mL
[5]; Acetone slurry
  Saturated Conc.: 130 mg/mL
[5]; Acetonitrile slurry
  Saturated Conc.: 80 mg/mL
[5]; DCM (dichloromethane) slurry
  Saturated Conc.: 210 mg/mL
[5]; Ethanol slurry
  Saturated Conc.: 110 mg/mL
[5]; Ethyl Acetate slurry
  Saturated Conc.: 120 mg/mL
[5]; IPA (isopropyl acetate) slurry
  Saturated Conc.: 95 mg/mL
[5]; Methanol slurry
  Saturated Conc.: 80 mg/mL
[5]; THF (tetrahydrofuran) slurry
  Saturated Conc.: 420 mg/mL
[5]; all solvent slurries except THF and DCM
  XRPD pattern of solids isolated from solvent slurries: consistent with Form I
[1]; as indicated by competitive slurry, hypothesized
  Relative thermodynamic stability of polymorphs: most thermodynamically stable polymorph
